Assay results reported in patent publication EP1475385A1 (Newron Pharmaceuticals S.p.A., priority 2003, dated 2004).
Where two headings read alike, the source gives them in different places.

Tests used:
[1] = molecular target: T1, brain KMO (Rattus norvegicus, UniProt O88867); experiment: In vitro KMO activity determination (rat brain mitochondria preparation, HPLC of 3-OH-KYN formation); format: biochemical
T1 construct: from tissue; host or cells: rat brain cortex, mitochondrial fraction (male Wistar rats)
Description: Rat brain mitochondria preparation: Male Wistar rats were sacrificed and brain quickly removed, cortex was dissected out on ice and homogenized in 2.5 volumes of ice-cold 0.32 M saccarose using a glass-Teflon homogenizer. After centrifugation at 600 g for 10 min at 4°C, the supernatant was stored and the pellet was washed and centrifuged again. The two supernatants were pooled and centrifuged at 10,000 g for 10 min at 4°C. The pellet was washed in fresh saccarose and centrifuged twice at 15,000 g for 10 min at 4°C. The pellet (corresponding to the mitochondrial fraction) was resuspended in 2.5 volumes of ice-cold 20 mM potassium phosphate buffer containing 0.14 M KCl, pH 7.0. Protein content was determined by BCA protein assay kit from Pierce.
In vitro KMO activity determination: The enzyme activity was evaluated by measuring by HPLC the formation of 3-OH-KYN in homogenates incubated in the presence of a fixed concentration of KYN (close to the enzyme Km that in our experimental conditions is 30 µM) […]
IC50 values were determined from three independent inhibition curves using at least seven different inhibitor concentrations using non linear regression analysis (best fitting aided-computer program.

[2] = test system: KYNA; experiment: Measurement of hippocampal KYNA levels by microdialysis; format: in vivo, rats
Description: Measurement of hippocampal kyna levels: Microdialysis was performed in adult, male rats (Charles-River; 200-250 g). Under anesthesia, a microdialysis probe (CMA/10, membrane length: 2 mm, Carnegie […], Stockholm, Sweden) was implanted vertically into the brain, extending throughout the dorsal hippocampus. On the next day, the probe was connected to a microperfusion pump, and the hippocampus of the unanesthetized rat was perfused with Ringer solution at a speed of 1 microliter/min. Dialysate was collected every 30 min. The concentration of KYNA in the dialysis samples was determined by HPLC with fluorimetric detection, using the analytical procedure described by Wu et al. (Eur. J. Neurosci., 4: 1264-1270,1992).

[3] = test system: GLU; experiment: Striatal GLU release by transcerebral microdialysis (caudate); format: in vivo, Wistar rats; conditions: caudate dialysate
Description: (§1) Striatal GLU release: Transcerebral microdialysis tubing having an exposed length of 1 mm for each caudate, were implanted through small burr holes drilled in the skull of anesthetized male Wistar rats. Approximately twelve hours after surgery, in freely moving animals, the membranes were perfused at a flow rate of 3.5 µl/min. After a washout period of approximately one hour, fractions were collected to determine the basal output of KYNA and of GLU. KYNA was measured using HPLC with post column derivatization and fluorometric detection as previously reported. HPLC separation and fluorometric detection was also used for quantitative measurements of GLU (Carpenedo et al 2001, Europ. J. Neuroscience 13, 2141-2147).

[4] = test system: KYNA; experiment: KYNA output in caudate dialysate by transcerebral microdialysis; format: in vivo, Wistar rats
Description: as §1

[5] = molecular target: KMO (Homo sapiens, UniProt O15229); conditions: reported in WO 98/40344; read-out: IC50 for KMO inhibition; cited from earlier work
Sequence of KMO (O15229 whole entry, species assumed): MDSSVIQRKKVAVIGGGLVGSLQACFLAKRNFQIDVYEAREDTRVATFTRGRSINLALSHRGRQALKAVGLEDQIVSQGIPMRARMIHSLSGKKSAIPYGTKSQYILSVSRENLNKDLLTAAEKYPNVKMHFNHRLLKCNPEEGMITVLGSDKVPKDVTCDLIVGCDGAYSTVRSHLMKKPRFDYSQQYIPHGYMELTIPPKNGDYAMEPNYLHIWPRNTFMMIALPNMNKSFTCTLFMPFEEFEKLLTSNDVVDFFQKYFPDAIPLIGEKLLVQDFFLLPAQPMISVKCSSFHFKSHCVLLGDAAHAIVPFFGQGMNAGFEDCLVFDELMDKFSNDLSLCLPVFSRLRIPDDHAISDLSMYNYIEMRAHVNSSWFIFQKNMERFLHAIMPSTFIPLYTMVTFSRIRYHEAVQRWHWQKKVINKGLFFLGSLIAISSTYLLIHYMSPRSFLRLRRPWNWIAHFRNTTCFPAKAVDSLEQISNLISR

T1 sequence (O88867 whole entry): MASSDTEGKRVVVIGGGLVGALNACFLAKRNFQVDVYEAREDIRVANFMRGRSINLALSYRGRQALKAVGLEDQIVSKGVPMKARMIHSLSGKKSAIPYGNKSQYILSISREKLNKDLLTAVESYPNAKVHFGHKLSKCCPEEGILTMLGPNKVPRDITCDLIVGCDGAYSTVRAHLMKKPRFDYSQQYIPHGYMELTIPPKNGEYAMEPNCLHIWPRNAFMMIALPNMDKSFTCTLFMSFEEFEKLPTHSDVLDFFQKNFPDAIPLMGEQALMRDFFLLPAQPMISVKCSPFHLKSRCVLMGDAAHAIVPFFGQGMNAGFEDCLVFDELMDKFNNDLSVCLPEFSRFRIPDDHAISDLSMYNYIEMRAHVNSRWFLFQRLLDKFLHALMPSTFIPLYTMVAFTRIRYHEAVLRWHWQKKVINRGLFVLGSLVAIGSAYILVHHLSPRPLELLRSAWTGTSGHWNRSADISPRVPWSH

| SMILES | IC50 ([1]; compound preincubated with mitochondria preparation for 30 min before adding the substrate (KYN), compared with IC50 without pre-incubation) | IC50 ([1]; in vitro brain KMO, without pre-incubation, KYN 50 µM, 60 min at 37°C, read-out: IC50) [nM] | KYNA extracellular concentration, maximum increase ([2]; hippocampus dialysate, 50 mg/kg ip, 6 hours after drug administration, mean ± SEM, P< 0.01, basal 2.6 ± 0.2 nM) [nM] | brain KYNA content ([2]; hippocampus, 25 and 50 mg/kg i.p., systemic administration) | dialysate KYNA concentration ([2]; hippocampus, up to 24 h after both 25 and 50 mg/kg i.p., P<0.05) | decrease in GLU concentrations ([3]; 24 h later) [%] | decrease in GLU concentrations ([3]; highest dose (30-100 µmol/kg i.p.), in 2 hrs (maximum), basal 4.3 ± 0.9 µM) [%] | brain KYNA content, maximum increase ([4]; 180 min after drug administration, basal 13.2 ± 0.1 nM) | increase in dialysate KYNA concentration ([4]; up to 24 h after 100 µmol/kg i.p.) | IC50 [5] [nM] |
| --- | --- | --- | --- | --- | --- | --- | --- | --- | --- | --- |
| O=C(OC[C@H]1O[C@H](O)[C@H](O)[C@@H](O)[C@H]1O)[C@H]1C[C@@H]1C(=O)c1ccc(Cl)c(Cl)c1 | not significantly different | 66 | 26.7 ± 2.2 | dose-dependently increased | significant increase | -65 | -78 ± 8 | +750% | +280% |  |
| O=C(O)C1CC1C(=O)c1ccc(Cl)c(Cl)c1 (stereo not shown) [2-(3,4-dichlorobenzoyl)-cyclopropane-1-carboxylic acid] |  |  |  |  |  |  |  |  |  | 180 |
